Laboratory results reported in patent US8021664B2, “Tumor antigens Bfa5 for prevention and/or treatment of cancer” (Sanofi Pasteur Limited, priority 2003, dated 2011).
Where no end group is shown, it is not given here. KLH = keyhole limpet hemocyanin carrier protein

Key:
HLA-A*0201 human T cells = test: IFN-γ ELISPOT on human T-cell cultures activated with BFA5 peptides pulsed on autologous dendritic cells; type: cell-based; conditions: for BFA5 peptides eliciting high IFN-γ release (>200 spots/100,000 cells): a peptide given is positive
Method: A library of 100 peptides from the BFA5/NYBR-1 coding sequence that are predicted to be medium to high binders to HLA-A*0201 were designed using Rammensee and Parker algorithms. The library was sub-divided into 10 pools of ten peptides (Table III), and each pool was used to activate 10 different T cell cultures after pulsing peptides on to mature autologous dendritic cells.
ELISPOT analysis was performed on human T-cell cultures activated through four rounds of stimulation with each pool of BFA5 peptides. Reactivity against a CMV pp 65 peptide and a Flu matrix peptide were used as positive controls for T-cell activation in the experiments. Each experiment was performed with PBMC and dendritic cells from a single HLA-A*0201^+ donor designated as “AP10”. […] Similar results were obtained for both BFA4 and BFA5/NYBR-1 with a different HLA-A*0201. […] Cultures having a reading of 600 spots have more than this number of spots.
A large number of the BFA5 peptide pools of are reactive as shown by the high levels of IFN-γ production. Each reactive peptide pool was then separated into individual peptides and analyzed for immunogencity using ELISPOT analysis to isolate single reactive BFA5 peptides. BFA5 is highly immunogenic with several reactive single peptides than that of BFA4. Similar results were obtained in two independent PBMC culture experiments.

[1] = Rabbit immunization with BFA5 peptides, serum IgG titer; type: in vivo; conditions: for IgG titer × 10^5 (After first Immunization Rb1/Rb2): after first immunization (peptide in FCA); for IgG titer × 10^5 (After second Immunization Rb1/Rb2): after second immunization (KLH-coupled peptide in FIA)
Method: Prebleed samples from rabbits were processed and stored at −20° C. Rabbits were immunized as follows: 1) the peptides were administered as an emulsion with Freund's Complete Adjuvant (FCA); and, 2) two weeks later, the peptides were coupled with Keyhole-Limpet Hemocyanin (KLH)-coupled and administered as an emulsion with Freund's Incomplete Adjuvant FIA.

peptide-loaded T2 cells = test: 51Cr-release CTL assay of peptide-activated T cells; conditions: a peptide given is positive
Method: In addition to ELISPOT analysis, human T cells activated by BFA5 peptides were assayed to determine their ability to function as CTL. The cells were activated using peptide-pulsed dendritic cells followed by CD40 ligand-activated B cells (5 rounds of stimulation). […] Isolated T cells were tested in ^51Cr-release assays using peptide-loaded T2 cells. The % specific lysis at a 10:1, 5:1, and 1:1 T-cell to target ratio is shown for T2 cells pulsed with either pools of BFA5/NYBR-1 peptides or with individual peptides.

Substance: 32 (AVYSEILSV; listed as Homo sapiens) [compound 32]
- BFA5 peptides eliciting high IFN-γ release (>200 spots/100,000 cells) (HLA-A*0201 human T cells; Donor AP10): AVYSEILSV

Substance: KLH-AENTMLTSKLKEKQDKEILEAEI ({KLH}-AENTMLTSKLKEKQDKEILEAEI; listed as Homo sapiens) [CLP 2981]
- IgG titer × 10^5 (After first Immunization Rb1/Rb2) ([1]; rabbit Rb1): 8 × 10^5
- IgG titer × 10^5 (After second Immunization Rb1/Rb2) ([1]; rabbit Rb1): 256 × 10^5
- IgG titer × 10^5 (After first Immunization Rb1/Rb2) ([1]; rabbit Rb2): 4 × 10^5
- IgG titer × 10^5 (After second Immunization Rb1/Rb2) ([1]; rabbit Rb2): 64 × 10^5

Substance: 72 (SLKINLNYA; listed as Homo sapiens) [compound 72]
- BFA5 peptides inducing CTL lysis of pulsed cells (peptide-loaded T2 cells; Donor AP31): SLKINLNVA
- BFA5 peptides eliciting high IFN-γ release (>200 spots/100,000 cells) (HLA-A*0201 human T cells; Donor AP10): SLKINLNYA
- BFA5 peptides eliciting high IFN-γ release (>200 spots/100,000 cells) (HLA-A*0201 human T cells; Donor AP31): SLKINLNYA

Substance: 54 (GVTAEHYAV; listed as Homo sapiens) [compound 54]
- BFA5 peptides eliciting high IFN-γ release (>200 spots/100,000 cells) (HLA-A*0201 human T cells; Donor AP31): GVTAEHYAV

Substance: 9 (SIPTKALEL; listed as Homo sapiens) [compound 9]
- BFA5 peptides inducing CTL lysis of pulsed cells (peptide-loaded T2 cells; Donor AP31): SIPTKALEL
- BFA5 peptides eliciting high IFN-γ release (>200 spots/100,000 cells) (HLA-A*0201 human T cells; Donor AP10): SIPTKALEL

Substance: 11 (TVSQKDVCL; listed as Homo sapiens) [compound 11]
- BFA5 peptides eliciting high IFN-γ release (>200 spots/100,000 cells) (HLA-A*0201 human T cells; Donor AP10): TVSQKDVCL

Substance: 37 (SLTPLLLSI; listed as Homo sapiens) [compound 37]
- BFA5 peptides inducing CTL lysis of pulsed cells (peptide-loaded T2 cells; Donor AP31): SLTPLLLSI
- BFA5 peptides eliciting high IFN-γ release (>200 spots/100,000 cells) (HLA-A*0201 human T cells; Donor AP10): SLTPLLLSI
- BFA5 peptides eliciting high IFN-γ release (>200 spots/100,000 cells) (HLA-A*0201 human T cells; Donor AP31): SLTPLLLSI

Substance: 84 (NLVDVYGNM; listed as Homo sapiens) [compound 84]
- BFA5 peptides inducing CTL lysis of pulsed cells (peptide-loaded T2 cells; Donor AP10): NLVDVYGNM
- BFA5 peptides eliciting high IFN-γ release (>200 spots/100,000 cells) (HLA-A*0201 human T cells; Donor AP10): NLVDVYGNM

Substance: 51 (NLNYAGDAL; listed as Homo sapiens) [compound 51]
- BFA5 peptides eliciting high IFN-γ release (>200 spots/100,000 cells) (HLA-A*0201 human T cells; Donor AP10): NLNYAGDAL
- BFA5 peptides eliciting high IFN-γ release (>200 spots/100,000 cells) (HLA-A*0201 human T cells; Donor AP31): NLNYAGDAL

Substance: 74 (ATCGMKVSI; listed as Homo sapiens) [compound 74]
- BFA5 peptides inducing CTL lysis of pulsed cells (peptide-loaded T2 cells; Donor AP10): ATCGMKVSI
- BFA5 peptides eliciting high IFN-γ release (>200 spots/100,000 cells) (HLA-A*0201 human T cells; Donor AP10): ATCGMKVSI

Substance: KLH-TSEKFTWPAKGRPRKIAWEKKED ({KLH}-TSEKFTWPAKGRPRKIAWEKKED; listed as Homo sapiens) [CLP 2978]
- IgG titer × 10^5 (After first Immunization Rb1/Rb2) ([1]; rabbit Rb1): 25/25 × 10^5
- IgG titer × 10^5 (After second Immunization Rb1/Rb2) ([1]; rabbit Rb1): 64 × 10^5
- IgG titer × 10^5 (After first Immunization Rb1/Rb2) ([1]; rabbit Rb2): 25/25 × 10^5
- IgG titer × 10^5 (After second Immunization Rb1/Rb2) ([1]; rabbit Rb2): 256 × 10^5

Substance: 30 (KVMEINREV; listed as Homo sapiens) [compound 30]
- BFA5 peptides eliciting high IFN-γ release (>200 spots/100,000 cells) (HLA-A*0201 human T cells; Donor AP10): KVMEINREV

Substance: BFA4: tumor antigen BFA4 (SEQ ID NOS.: 1 and 2), compared with BFA5 in T-cell ELISPOT
- ELISPOT reactivity (IFN-γ production) of peptide pools (HLA-A*0201 human T cells; four rounds of stimulation, HLA-A*0201+ donor AP10, counts per 100,000 cells): markedly reactive

Substance: 61 (MLKKEIAML; listed as Homo sapiens) [compound 61]
- BFA5 peptides eliciting high IFN-γ release (>200 spots/100,000 cells) (HLA-A*0201 human T cells; Donor AP31): MLKKEIAML

Substance: 57 (KSQEPAFHI; listed as Homo sapiens) [compound 57]
- BFA5 peptides eliciting high IFN-γ release (>200 spots/100,000 cells) (HLA-A*0201 human T cells; Donor AP31): KSQEPAFHI

Substance: 63 (ALRIQDIEL; listed as Homo sapiens) [compound 63]
- BFA5 peptides eliciting high IFN-γ release (>200 spots/100,000 cells) (HLA-A*0201 human T cells; Donor AP10): ALRIQDIEL

Substance: 28 (SLSKILDTV; listed as Homo sapiens) [compound 28]
- BFA5 peptides inducing CTL lysis of pulsed cells (peptide-loaded T2 cells; Donor AP31): SLSKILDTV
- BFA5 peptides eliciting high IFN-γ release (>200 spots/100,000 cells) (HLA-A*0201 human T cells; Donor AP10): SLSKILDTV
- BFA5 peptides eliciting high IFN-γ release (>200 spots/100,000 cells) (HLA-A*0201 human T cells; Donor AP31): SLSKILDTV

Substance: 8 (KVSIPTKAL; listed as Homo sapiens) [compound 8]
- BFA5 peptides inducing CTL lysis of pulsed cells (peptide-loaded T2 cells; Donor AP31): KVSIPTKAL
- BFA5 peptides eliciting high IFN-γ release (>200 spots/100,000 cells) (HLA-A*0201 human T cells; Donor AP10): KVSIPTKAL

Substance: 49 (SVPNKAFEL; listed as Homo sapiens) [compound 49]
- BFA5 peptides eliciting high IFN-γ release (>200 spots/100,000 cells) (HLA-A*0201 human T cells; Donor AP10): SVPNKAFEL

Substance: KLH-NYNNHLKNRIYQYEKEKAETENS ({KLH}-NYNNHLKNRIYQYEKEKAETENS; listed as Homo sapiens) [CLP 2982]
- IgG titer × 10^5 (After first Immunization Rb1/Rb2) ([1]; rabbit Rb1): 2/2 × 10^5
- IgG titer × 10^5 (After second Immunization Rb1/Rb2) ([1]; rabbit Rb1): 64 × 10^5
- IgG titer × 10^5 (After first Immunization Rb1/Rb2) ([1]; rabbit Rb2): 2/2 × 10^5
- IgG titer × 10^5 (After second Immunization Rb1/Rb2) ([1]; rabbit Rb2): 32 × 10^5

Substance: KLH-MTKRKKTINLNIQDAQKRTALHW ({KLH}-MTKRKKTINLNIQDAQKRTALHW; listed as Homo sapiens) [CLP 2977]
- IgG titer × 10^5 (After first Immunization Rb1/Rb2) ([1]; rabbit Rb1): 25 × 10^5
- IgG titer × 10^5 (After second Immunization Rb1/Rb2) ([1]; rabbit Rb1): 256 × 10^5
- IgG titer × 10^5 (After first Immunization Rb1/Rb2) ([1]; rabbit Rb2): 6 × 10^5
- IgG titer × 10^5 (After second Immunization Rb1/Rb2) ([1]; rabbit Rb2): 64 × 10^5

Substance: 24 (QLQSKNMWL; listed as Homo sapiens) [compound 24]
- BFA5 peptides inducing CTL lysis of pulsed cells (peptide-loaded T2 cells; Donor AP31): QLQSKNMWL
- BFA5 peptides eliciting high IFN-γ release (>200 spots/100,000 cells) (HLA-A*0201 human T cells; Donor AP10): QLQSKNMWL
- BFA5 peptides eliciting high IFN-γ release (>200 spots/100,000 cells) (HLA-A*0201 human T cells; Donor AP31): QLQSKNMWL

Substance: 78 (VFAADICGV; listed as Homo sapiens) [compound 78]
- BFA5 peptides eliciting high IFN-γ release (>200 spots/100,000 cells) (HLA-A*0201 human T cells; Donor AP31): VFAADICGV

Substance: KLH-RLTLNQEEEKRRNADILNEKIRE ({KLH}-RLTLNQEEEKRRNADILNEKIRE; listed as Homo sapiens) [CLP 2980]
- IgG titer × 10^5 (After first Immunization Rb1/Rb2) ([1]; rabbit Rb1): 25 × 10^5
- IgG titer × 10^5 (After second Immunization Rb1/Rb2) ([1]; rabbit Rb1): 1024 × 10^5
- IgG titer × 10^5 (After first Immunization Rb1/Rb2) ([1]; rabbit Rb2): 12 × 10^5
- IgG titer × 10^5 (After second Immunization Rb1/Rb2) ([1]; rabbit Rb2): 128 × 10^5

Substance: 81 (ILKEKNAEL; listed as Homo sapiens) [compound 81]
- BFA5 peptides eliciting high IFN-γ release (>200 spots/100,000 cells) (HLA-A*0201 human T cells; Donor AP10): ILKEKNAEL
- BFA5 peptides eliciting high IFN-γ release (>200 spots/100,000 cells) (HLA-A*0201 human T cells; Donor AP31): ILKEKNAEL

Substance: 59 (MLKLEIATL; listed as Homo sapiens) [compound 59]
- BFA5 peptides inducing CTL lysis of pulsed cells (peptide-loaded T2 cells; Donor AP31): MLKLEIATL
- BFA5 peptides eliciting high IFN-γ release (>200 spots/100,000 cells) (HLA-A*0201 human T cells; Donor AP10): MLKLEIATL
- BFA5 peptides eliciting high IFN-γ release (>200 spots/100,000 cells) (HLA-A*0201 human T cells; Donor AP31): MLKLEIATL

Substance: 77 (AELQMTLKL; listed as Homo sapiens) [compound 77]
- BFA5 peptides inducing CTL lysis of pulsed cells (peptide-loaded T2 cells; Donor AP10): AELQMTLKL
- BFA5 peptides inducing CTL lysis of pulsed cells (peptide-loaded T2 cells; Donor AP31): AELQMTLKL
- BFA5 peptides eliciting high IFN-γ release (>200 spots/100,000 cells) (HLA-A*0201 human T cells; Donor AP10): AELQMTLKL

Substance: 85 (KCTALMLAV; listed as Homo sapiens) [compound 85]
- BFA5 peptides eliciting high IFN-γ release (>200 spots/100,000 cells) (HLA-A*0201 human T cells; Donor AP10): KCTALMLAV

Substance: KLH-DEILPSESKQKDYEENSWDTESL ({KLH}-DEILPSESKQKDYEENSWDTESL; listed as Homo sapiens) [CLP 2979]
- IgG titer × 10^5 (After first Immunization Rb1/Rb2) ([1]; rabbit Rb1): 12 × 10^5
- IgG titer × 10^5 (After second Immunization Rb1/Rb2) ([1]; rabbit Rb1): 256 × 10^5
- IgG titer × 10^5 (After first Immunization Rb1/Rb2) ([1]; rabbit Rb2): 25 × 10^5
- IgG titer × 10^5 (After second Immunization Rb1/Rb2) ([1]; rabbit Rb2): 512 × 10^5

Substance: 12 (SVPNKALEL; listed as Homo sapiens) [compound 12]
- BFA5 peptides eliciting high IFN-γ release (>200 spots/100,000 cells) (HLA-A*0201 human T cells; Donor AP10): SVPNKALEL

Substance: 67 (VLKKKLSEA; listed as Homo sapiens) [compound 67]
- BFA5 peptides eliciting high IFN-γ release (>200 spots/100,000 cells) (HLA-A*0201 human T cells; Donor AP31): VLKKKLSEA
